Assay results: patent US20150219624A1, “METHODS FOR IDENTIFYING ANTI-CANCER COMPOUNDS” (MEMORIAL SLOAN KETTERING CANCER CENTER, priority 2013, published 2015)

Legend:
[1] = test system: primary human T-ALL samples; experiment: Viability / apoptosis induction in primary human T-ALL samples; format: cell-based
Text: (§1) E) Simplified diagram of rapamycin and silvestrol mechanism of action.

[2] = test system: cap-dependent translation; experiment: Dual-luciferase reporter assay (capped vs IRES-driven luciferase); format: cell-based; settings: renilla and firefly luciferase either capped or under control of an IRES element
Protocol: Luciferase assays. Four tandem repeats of the (CGG)4 12-mer motif (GQs) or random sequence matched for length and GC content (random) were cloned into the 5′UTR of Renilla luciferase plasmid pGL4.73. Empty firefly luciferase plasmid pGL4.13 or HCV-IRES firefly were used as internal controls. Luciferase assays were performed using Dual-Luciferase Reporter Assay System (Promega E1960) following the manufacturer's instructions. GQs sequence: […]

JURKAT and KOPT-K1 cells = experiment: Immunoblots of target proteins in human T-ALL lines; format: cell-based; settings: 25 nM, immunoblot
Protocol: (§2) Immunoblots. Lysates were made using Laemli lysis buffer. 30 ug of protein was loaded onto SDS-PAGE gels then transferred onto Immobilon-FL Transfer Membranes (Millipore IPFL00010). The antibodies used were α-Tubulin (Sigma T5168), β-actin (Sigma A5316), Myc (Santa Cruz Biotechnology sc-40), p-Akt 308 (Cell Signaling 9275), Akt (Cell Signaling 9272), S6 (Cell Signaling 2317), and p-S6 (Cell Signaling 2215), Notch1 (Cell signaling 3608), Myb (Santa Cruz Biotechnology, sc-517), CDK6 (Cell Signaling 3136), EZH2 (Cell Signaling 5246), Mdm2 (Santa Cruz Biotechnology, sc-965), Bcl2 (Santa Cruz Biotechnology, sc-509), Run×1 (Cell Signaling 4336), and GAPDH (Cell Signaling 5174).
Given the complexity of the RF data analysis, it was important to directly confirm loss of expression for at least some of these proteins. Briefly, immunoblots on JURKAT and KOPT-K1 cells treated with silvestrol (25 nM) and loaded with equal amounts of total protein confirmed dramatic loss of MYC, NOTCH1, BCL2, and CCND3 proteins (FIG. 6A). The effect on MYC was especially striking, it was dose dependent (FIG. 6B), lasted for 48 h, and was also achieved in xenografts in vivo (Figure S6A-B). […] As expected, ACTIN, TUBULIN, and GAPDH were not affected (FIG. 6A). […] The small and significant increase in MYC mRNA levels might be consistent with prior reports of a MYC auto-regulatory mechanism (Penn et al., 1990a; Penn et al., 1990b) (FIG. 6C).
FIG. 6 depicts validation of selected silvestrol targets. A) Immunoblots of lysates from human T-ALL lines treated with silvestrol (25 nM) and probed as indicated. B) Immunoblots of lysates from JURKAT cells treated with escalating doses of silvestrol and probed as indicated. C) mRNA levels for the corresponding genes treated with vehicle (DMSO, black) or silvestrol (red, 25 nM); D) Volcano plot of mRNA expression changes of all TE Down and rDiff genes in T-ALL samples (n=9) compared to normal thymocytes (n=4). E) Kaplan-Meier analysis showing time to leukemia development (as in FIG. 1B). Wild-type HPCs transduced with NOTCH1-ICN and empty vector (black, n=14), Myb (red, n=4), Ccnd3 T283A (orange, n=5), or shEzh2 (orange, n=10), vavP-Bcl2 (brown, n=4), p53−/− (green, n=3). F) Effect of OmoMYCER activation on survival of leukemic animals; (d=0 represents start of therapy/tamoxifen (TAM) administration). Inset: clearance of GFP expressing murine T-ALL cells from the marrow upon OmomycER activation (Untr: untreated, TAM: tamoxifen). G) Competition experiment (as in FIG. 1C/D) showing the percentage of each starting GFP positive population of murine T-ALL cells partially transduced with the indicated constructs and treated with silvestrol (* indicates p<0.05).
FIG. 13 depicts the relative contribution of MYC and other silvestrol targets in T-ALL. […]

KOPT-K1 xenografts = experiment: KOPT-K1 xenograft study; settings: for tumor growth: d 0-6, systemic; for toxicity, death, weight loss: treated mice, therapeutic doses
Protocol: Statistical analysis. All Kaplan-Meier curves were analyzed using the Mantel-Cox test. The significance of xenografted tumor size differences was determined using two-way repeated measures ANOVA tests. RT-PCRs were analyzed with two tailed t-tests.
Xenografts. 5,000,000 KOPT-K1 cells in 30% matrigel (BD 354234) were injected subcutaneously into C.B-17 scid mice. […] Tumor size was measured daily by caliper. P-values were calculated using 2-way repeated measures ANOVA.
Cycloheximide (C7698) and Rapamycin (R8781) were purchased from Sigma.
D) KOPT-K1 xenograft studies.

[3] = test system: S6 phosphorylation and AKT (T308) phosphorylation; experiment: Immunoblots of S6 and AKT phosphorylation in KOPT-K1 cells; format: cell-based, human; settings: 25 nM, 48 hours
Protocol: as §2, §1

Compound | in vitro activity against T-ALL compared with silvestrol ([1]; not shown) | block of cap-dependent versus IRES-dependent translation [2] | target protein levels compared with silvestrol result (JURKAT and KOPT-K1 cells; 24H) | tumor growth (KOPT-K1 xenografts; 0.2 mg/kg, n=8, p<0.001) | pathologic analysis of treated tumors (TUNEL, Ki-67) (KOPT-K1 xenografts; treated KOPT-K1 tumors) | toxicity, death, weight loss (KOPT-K1 xenografts) | phosphorylation of AKT (T308) [3] | ribosomal S6 phosphorylation / S6 kinase activity [3] | IC50 ([1]; primary human T-ALL samples in vitro, 48 hours) | ACTIN, TUBULIN and GAPDH protein levels (JURKAT and KOPT-K1 cells) | MYB, CDK6, EZH2 and RUNX1/AML1 protein expression (JURKAT and KOPT-K1 cells) | MYC, NOTCH1, BCL2 and CCND3 protein levels (JURKAT and KOPT-K1 cells) | tumor growth (KOPT-K1 xenografts; 0.5 mg/kg, n=7, p<0.001)
(±)-CR-31-B | similar | preferentially block cap-dependent over IRES-dependent translation | same result was confirmed | significant delay in tumor growth | diffuse apoptosis by TUNEL and loss of proliferation by Ki-67 | no severe toxicity, death, or weight loss | did not lead to phosphorylation of AKT (T308) | does not affect S6 kinase activity |  |  |  |  | 
COC(=O)[C@H]1[C@@H](O)[C@@]2(O)c3c(OC)cc(O[C@@H]4O[C@@H]([C@H](O)CO)CO[C@H]4OC)cc3O[C@@]2(c2ccc(OC)cc2)[C@@H]1c1ccccc1 [silvestrol] |  | preferentially block cap-dependent over IRES-dependent translation |  |  |  | no severe toxicity, death, or weight loss | did not lead to phosphorylation of AKT (T308) | does not affect S6 kinase activity | 3 to 13 nM | not affected | somewhat less decreased | dramatic loss | significant delay in tumor growth
